Test results reported in patent US8404746B2, “Anti-diabetes composition containing chicoric acid and/or one of the metabolites thereof” (Centre National de la Recherche Scientifique (CNRS), priority 2006, dated 2013).

Test system: L6 rat myocyte cell line
Experiment: [3H]-deoxyglucose uptake in the L6 rat myocyte cell line with or without insulin (Example 5, FIG. 5)
Type: cell-based
Settings: insulin at 100 nM alone, p<0.001
Excerpt: The L6 line (a line from the skeletal muscle of Rattus norvegicus provided by ATCC-LCC Promochem) was used. Glucose uptake in the presence of insulin with or without SAT2 was quantified using [^3H]-deoxyglucose. The L6 cell line is cultivated in DMEM (4.5 g/l glucose) supplemented with 10% fetal calf serum (FCS). For the glucose uptake experiments, the cells are inoculated in 12-well plates at a density of 10^4 cells/well. After three days of culture, the cells are differentiated in DMEM with 2% FCS for one week. The day of the experiment, the cells are deprived for 4 hours in DMEM without FCS and containing 0.1% BSA, and then they are incubated for 1 hour in a Krebs-Ringer buffer containing 1 g/l glucose and containing […] insulin with or without SAT2 at a concentration of 50 μg/ml or 100 μg/ml. The cells are then washed in Krebs-Ringer and then incubated in the presence of 0.5 μCi [^3H]-deoxyglucose in 1 ml Krebs-Ringer per well. Glucose uptake by the L6 cells is stopped by three washings in cold PBS and the cells are then lysed in 1 ml of a 0.1 N NaOH solution. Concentration in total protein is estimated by the Bradford method and radioactivity is measured using a β counter. The final results are expressed in cpm/mg/min. […] The effects on glucose uptake are measured in the presence of [^3H]-deoxyglucose for 5 minutes. […]

Insulin
increase in glucose capture: 30.4%
